Results from patent US9546201B2, “MUC-1 cytoplasmic domain peptides as inhibitors of cancer” (DANA-FARBER CANCER INSTITUTE, INC., priority 2008, dated 2017).
Where two headings read alike, the source gives them in different places. Where a SMILES comes first, the peptide text is derived from it. Where no end group is shown, it is not given here. [ ]: non-standard residue; d: D form.

Key:
[1] = target: T1, MUC1-C in ZR-75-1 cells (Homo sapiens, UniProt P15941); experiment: Immunoblot of whole cell and nuclear lysates, ZR-75-1; format: cell-based; conditions: 5 μM peptide for 3 d; for decreases in nuclear MUC1-C levels: nuclear lysates; for cellular MUC1-C levels: whole cell lysates
T1 construct: translated as a single polypeptide and cleaved into N- and C-terminal subunits in the endoplasmic reticulum; endogenous in cells; host or cells: ZR-75-1 and MCF-7 human breast cancer cells
T1 sequence (P15941 1098-1255 limits assumed): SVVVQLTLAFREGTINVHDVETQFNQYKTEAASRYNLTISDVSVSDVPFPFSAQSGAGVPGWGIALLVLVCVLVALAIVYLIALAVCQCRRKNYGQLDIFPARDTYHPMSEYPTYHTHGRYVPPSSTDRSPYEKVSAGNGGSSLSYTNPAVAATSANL
Description: FIGS. 2A-C. MUC1/CQC peptide blocks nuclear localization of MUC1-C. (FIG. 2A) ZR-75-1 cells were incubated with 5 μM FITC-labeled MUC1/CQC peptide for the indicated times and then analyzed by flow cytometry. The mean fluorescence index (MFI) is included in each of the panels. (FIGS. 2B-C) ZR-75-1 (FIG. 2B) and MCF-7 (FIG. 2C) cells were incubated in the presence of 5 μM MUC1/CQC or MUC1/AQA peptide for 3 d. Whole cell lysates (WCL) (left panels) and nuclear lysates (right panels) were immunoblotted with the indicated antibodies.
Whole cell and nuclear lysates were prepared as described (Leng et al., 2007). Soluble proteins were subjected to immunoprecipitation with anti-Flag (Sigma, St. Louis, Mo.). Immunoprecitates and soluble proteins were analyzed by immunoblotting with anti-His (Cell Signaling Technology, Danvers, Mass.), anti-GFP (Millipore, Danvers, Mass.), anti-Flag, anti-MUC1-C (Abl; NeoMarkers, Fremont, Calif.), anti-lamin B (EMD, La Jolla, Calif.) or anti-β-actin (Sigma). Reactivity was detected with horseradish peroxidase-conjugated second antibodies and chemiluminescence.
Human ZR-75-1 and MCF-7 breast cancer cells overexpress endogenous MUC1, and thus represent potential models for evaluating effects of the MUC1/CQC peptide (Ramasamy et al., 2007). To assess uptake, the ZR-75-1 cells were incubated with 5 μM FITC-MUC1/CQC peptide (FIG. 2A). […] Oligomerization of MUC1-C is necessary for its nuclear import (Leng et al., 2007). Treatment of ZR-75-1 cells with the MUC1/CQC or the MUC1/AQA peptide had no effect on cellular MUC1-C levels (FIG. 2B). […] These findings indicate that the MUC1/CQC peptide blocks MUC1-C oligomerization and thereby targeting of MUC1-C to the nucleus.

[2] = test system: ZR-75-1 breast tumor xenografts
Description: FIGS. 5A-C. […] (FIG. 5A) Four to six week-old female Balb-c nu/nu mice were implanted with 17-β-estradiol plugs. After 24 h, ZR-75-1 breast cancer cells (imbedded in matrigel) were injected subcutaneously in the flank. When tumors were ˜150 mm3, the mice were paired matched into groups and injected intraperitoneally with PBS (vehicle control; closed squares), 50 mg/kg MUC1/AQA peptide (control peptide; open squares) or 10 mg/kg MUC1/CQC peptide (closed triangles) daily for 21 d. Another group was treated with 50 mg/kg MUC1/CQC peptide daily (⇑) for 6 d (open triangles). Mice were weighed twice weekly and tumor measurements were performed every 4 d. (FIGS. 5B and 5C). On day 24 (asterisk), tumors harvested from the control group and the group treated with 50 mg/kg/d×6d were stained with H&E (FIG. 5B) and with an antibody against MUC1 (FIG. 5C).
(FIG. 6A) Mice were injected with ZR-75-1 cells as described in the legend to FIG. 5A. When tumors were ˜275 mm^3, the mice were paired matched into groups and injected intraperitoneally with PBS (vehicle control; open squares) or 30 mg/kg MUC1/CQC peptide (closed squares) daily for 21 days (solid horizontal bar). […] The treated mice were monitored until day 52 when tumors were harvested for H&E staining (FIG. 6B).
Balb-c nu/nu female mice (Charles River Laboratories, Wilmington, Mass.), 4-6 weeks old weighing 18-22 grams, were implanted subcutaneously with 17-β-estradiol plugs (0.72 mg; Innovative Research, Sarasota, Fla.) using a trocar gun. After 24 h, 1×10^7 ZR-75-1 cells imbedded in Matri-Gel (BD Biosciences) were injected subcutaneously in the flank. When tumors were detectable at ˜150 mm^3 (Cohort 1) or 275 mm^3 (Cohort 2), the mice were pair matched into treatment and control groups. Each group contained 5 mice, each of which was ear tagged and followed throughout the study. Initial dosing was administered at the time of pair matching (day 1). Phosphate-buffered saline (vehicle), MUC1/CQC peptide and MUC1/AQA peptide were administered daily by intraperitoneal injection. Mice were weighed twice weekly, and tumor measurements were performed using calipers every 4 d. Tumor volume (V) was calculated using the formula V=W2×L/2, where W and L are the smaller and larger diameters, respectively. At sacrifice, the mice were perfused with saline and then phosphate-buffered formalin by cardiac administration. Tumors were excised, immersion fixed for 4 h, dehydrated through a graded series of ethanols, and processed for routine paraffin embedding. Tumors were evaluated by H&E staining and for immunoperoxidase staining with anti-MUC1 as described (Kufe, 1984).
To determine if administration of the MUC1/CQC peptide is associated with effects on body weight, five female nude (nu/nu) mice were injected intraperitoneally (IP) once each day at a dose of 50 mg/kg. […] To assess anti-tumor activity, ZR-75-1 cells (1×10^7) were implanted subcutaneously into the flanks of nude mice. After 12 d, mice bearing tumors of approximately 150 mm^3 were treated with the MUC1/CQC peptide at doses of 10 and 50 mg/kg/d. As controls, mice were treated with vehicle alone or with the MUC1/AQA peptide. […] To assess in part the basis for the activity, tumors harvested from control and treated mice were examined by histopathology. […] Sections of the tumors were also stained with an antibody against MUC1.
Studies were also performed on larger tumors (˜275 mm^3) (FIG. 6A).

[3] = 30 mg/kg/d×21 d, tumors harvested on day 52

| Molecule | decreases in nuclear MUC1-C levels [1] | cellular MUC1-C levels [1] | tumor growth ([2]; 10 mg/kg/d×21 d IP, tumors ~150 mm3, compared with MUC1/AQA 50 mg/kg/d) | MUC1 expression in tumors [2, 3] | tumor histopathology (H&E) [2, 3] | tumor growth ([2]; 30 mg/kg/d×21 d IP, larger tumors ~275 mm3) | tumor growth during treatment ([2]; 50 mg/kg/d IP, initial 7 d, tumors ~150 mm3) | tumor growth ([2]; 10 and 30 mg/kg/d for 21 d) | tumor histopathology (H&E) ([2]; 10 and 50 mg/kg, compared with vehicle or MUC1/AQA) | MUC1 expression in tumors (anti-MUC1 staining) ([2]; tumors ~150 mm3 cohort, compared with control and MUC1/AQA) | anti-tumor activity ([2]; 50 mg/kg/d for 21 d) |
| --- | --- | --- | --- | --- | --- | --- | --- | --- | --- | --- | --- |
| CC[C@H](C)[C@H](NC(=O)[C@H](CC(=O)O)NC(=O)[C@H](CC(C)C)NC(=O)[C@H](CCC(N)=O)NC(=O)CNC(=O)[C@H](Cc1ccc(O)cc1)NC(=O)[C@H](CC(N)=O)NC(=O)[C@H](CCCCN)NC(=O)[C@H](CCCNC(=N)N)NC(=O)[C@H](CCCNC(=N)N)NC(=O)[C@H](CS)NC(=O)[C@H](CCC(N)=O)NC(=O)[C@H](CS)NC(=O)[C@@H](CCCNC(=N)N)NC(=O)[C@@H](CCCNC(=N)N)NC(=O)[C@@H](CCCNC(=N)N)NC(=O)[C@@H](CCCNC(=N)N)NC(=O)[C@@H](CCCNC(=N)N)NC(=O)[C@@H](CCCNC(=N)N)NC(=O)[C@@H](CCCNC(=N)N)NC(=O)[C@@H](CCCNC(=N)N)NC(=O)[C@H](N)CCCNC(=N)N)C(=O)N[C@@H](Cc1ccccc1)C(=O)N1CCC[C@H]1C(=O)O [MUC1/CQC] (H-[dR][dR][dR][dR][dR][dR][dR][dR][dR]CQCRRKNYGQLDIFP-OH; N-terminus and C-terminus assumed) | decreases in nuclear MUC1-C levels | no effect | slowed growth | down-regulation of MUC1 expression | extensive areas of necrosis | arrest of tumor growth | blocked growth | effective in abrogating tumor growth | markedly necrotic | marked down-regulation of MUC1 expression | – |
| MUC1/AQA: control peptide in which the CQC motif was altered to AQA, with poly-dArg transduction domain; SEQ ID NO: 60 ([dR][dR][dR][dR][dR][dR][dR][dR][dR]AQARRKNYGQLDIFP) [reference compound] | not | no effect | – | – | – | – | – | – | – | – | no anti-tumor activity |
